Data as given in paper PMC3151326 (2011).

Molecular target: PDE5 (Homo sapiens, UniProt O76074)
Test: cGMP PDE activity
Format: biochemical

- IC50: ~100 µM
Structure (SMILES): CSc1ccc(/C=C2/C(C)=C(CC(=O)O)c3cc(F)ccc32)cc1 [SS, sulindac sulfide]
